Source: ChEMBL document CHEMBL5338775, “Discovery of a Novel Class of PROTACs as Potent and Selective Estrogen Receptor α Degraders to Overcome Endocrine-Resistant Breast Cancer In Vitro and In Vivo” (J Med Chem, 2023)
Activity calls are given as the source filed them. The calls are words filed in the database; no cut-off is given here.

Key:
T47D [1] = test: cells; details: Homo sapiens, 72 h
[2] = Selectivity index, ratio of Ki for ERalpha (unknown origin) to Ki for ERbeta (unknown origin)
T47D [3] = test: cells; details: Homo sapiens, 72 h; remark: listed apart in the source
T47D [4] = test: cells; details: Homo sapiens, 72 h; remark: listed apart in the source
Estrogen receptor beta [5] = biological target: T1, Estrogen receptor beta (Homo sapiens, UniProt Q92731); test: Binding affinity to ERbeta (unknown origin) assessed as relative binding affinity incubated for 2 hrs by fluorescence polarization assay relative to estradiol
in vitro = details: human, MCF-10A cells
MCF7 = test: cells; details: Homo sapiens, MCF7, 72 h
[6] = Selectivity ratio of relative binding affinity for ERalpha (unknown origin) to relative binding affinity to ERbeta (unknown origin)
Estrogen receptor = biological target: T2, Estrogen receptor (Homo sapiens, UniProt P03372)
T2 sequence (P03372 whole entry): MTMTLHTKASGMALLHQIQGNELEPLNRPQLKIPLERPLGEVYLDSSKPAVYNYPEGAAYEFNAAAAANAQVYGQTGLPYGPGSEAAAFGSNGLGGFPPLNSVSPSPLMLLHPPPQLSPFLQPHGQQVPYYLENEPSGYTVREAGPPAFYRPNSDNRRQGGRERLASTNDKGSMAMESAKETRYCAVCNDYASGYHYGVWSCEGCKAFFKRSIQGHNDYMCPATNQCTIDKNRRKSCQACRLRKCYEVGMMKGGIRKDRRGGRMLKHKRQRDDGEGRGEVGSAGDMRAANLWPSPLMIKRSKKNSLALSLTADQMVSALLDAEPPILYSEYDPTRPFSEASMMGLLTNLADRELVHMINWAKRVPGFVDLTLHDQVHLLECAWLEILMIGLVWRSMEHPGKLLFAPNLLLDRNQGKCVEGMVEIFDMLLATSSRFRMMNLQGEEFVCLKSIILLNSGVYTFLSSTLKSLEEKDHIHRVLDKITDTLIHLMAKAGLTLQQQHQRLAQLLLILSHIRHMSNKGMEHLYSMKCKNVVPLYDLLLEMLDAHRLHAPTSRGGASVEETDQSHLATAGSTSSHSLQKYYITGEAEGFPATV

Estrogen receptor beta [7] = biological target: T1, Estrogen receptor beta
cells = details: Homo sapiens, Tamoxifen-resistant LCC2 cell, 72 h
MDA-MB-231 = test: cells; details: Homo sapiens, MDA-MB-231, 72 h
[8] = biological target: Protein cereblon/Estrogen receptor (Homo sapiens) (UniProt P03372+Q96SW2); test: PROTAC activity at CRBN/wild type ERalpha in ER-positive human MCF7 cells assessed as induction of ERalpha degradation at 1 uM incubated for 12 hrs by Western blot analysis; format: cell-based
Protein cereblon/Estrogen receptor (Homo sapiens), sequence (Q96SW2 whole entry, looked up, one chain of several): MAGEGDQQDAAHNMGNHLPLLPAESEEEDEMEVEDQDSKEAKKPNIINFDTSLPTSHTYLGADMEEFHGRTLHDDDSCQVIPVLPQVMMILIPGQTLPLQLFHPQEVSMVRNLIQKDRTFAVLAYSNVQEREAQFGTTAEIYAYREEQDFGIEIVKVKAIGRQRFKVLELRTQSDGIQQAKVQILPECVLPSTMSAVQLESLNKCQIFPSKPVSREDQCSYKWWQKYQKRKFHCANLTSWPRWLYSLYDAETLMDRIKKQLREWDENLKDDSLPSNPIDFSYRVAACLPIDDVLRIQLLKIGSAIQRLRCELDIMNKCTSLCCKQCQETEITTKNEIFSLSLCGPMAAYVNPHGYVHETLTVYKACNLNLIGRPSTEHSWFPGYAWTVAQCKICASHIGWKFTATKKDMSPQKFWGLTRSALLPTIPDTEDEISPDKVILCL

T1 sequence (Q92731 whole entry): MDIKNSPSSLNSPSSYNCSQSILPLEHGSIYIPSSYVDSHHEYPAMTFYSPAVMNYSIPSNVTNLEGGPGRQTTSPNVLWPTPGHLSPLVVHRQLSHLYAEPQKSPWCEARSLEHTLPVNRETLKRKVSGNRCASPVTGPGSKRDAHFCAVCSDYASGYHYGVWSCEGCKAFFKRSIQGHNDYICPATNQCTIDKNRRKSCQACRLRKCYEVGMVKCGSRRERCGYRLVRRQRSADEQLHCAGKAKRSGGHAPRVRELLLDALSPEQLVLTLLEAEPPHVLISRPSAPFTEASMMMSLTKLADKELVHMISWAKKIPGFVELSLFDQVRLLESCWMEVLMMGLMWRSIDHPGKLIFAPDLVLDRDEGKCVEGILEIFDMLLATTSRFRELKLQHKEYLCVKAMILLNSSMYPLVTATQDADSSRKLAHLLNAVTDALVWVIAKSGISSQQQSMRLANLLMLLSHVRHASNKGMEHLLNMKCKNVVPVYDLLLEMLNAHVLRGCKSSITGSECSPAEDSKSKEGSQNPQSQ

| SMILES | IC50 (T47D [1]) [µM] | Ratio Ki [2] | IC50 (T47D [3]) [µM] | IC50 (T47D [4]) [µM] | RBA (Estrogen receptor beta [5]) [%] | IC50 at 72 h (in vitro) [µM] | IC50 (MCF7) [µM] | Selectivity ratio [6] | Ki (Estrogen receptor) [µM] | Ki (Estrogen receptor beta [7]) [µM] | IC50 (cells) [µM] | IC50 (MDA-MB-231) [µM] | Activity [8] |
| --- | --- | --- | --- | --- | --- | --- | --- | --- | --- | --- | --- | --- | --- |
| CCN(c1ccc(OCCCCCCC(=O)N[C@H](C(=O)N2C[C@H](O)C[C@H]2C(=O)N[C@@H](C)c2ccc(-c3scnc3C)cc2)C(C)(C)C)cc1)S(=O)(=O)C1CC2OC1C(c1ccc(O)cc1)=C2c1ccc(O)cc1 (stereo partly drawn) | > 30 | 5.53 | > 30 | > 30 | 0.07 | > 100 | 0.57 | 1.43 | 2.03 | 11.2 | > 30 | > 100 | – |
| O=C(COc1cccc2c1C(=O)N(C1CCC(=O)NC1=O)C2=O)NCCCCCCCCOc1ccc(N(CC(F)(F)F)S(=O)(=O)C2CC3OC2C(c2ccc(O)cc2)=C3c2ccc(O)cc2)cc1 (stereo not drawn) | > 50 | 3.39 | > 50 | > 50 | 0.16 | > 100 | > 50 | 0.88 | 1.45 | 4.91 | > 50 | > 100 | inactive |
| CCN(c1ccc(OCCCCCCCCC(=O)N[C@H](C(=O)N2C[C@H](O)C[C@H]2C(=O)NCc2ccc(-c3scnc3C)cc2)C(C)(C)C)cc1)S(=O)(=O)C1CC2OC1C(c1ccc(O)cc1)=C2c1ccc(O)cc1 (stereo partly drawn) | > 30 | 2.21 | > 30 | > 30 | 0.07 | > 100 | > 10 | 0.57 | 5.08 | 11.2 | > 30 | > 100 | – |
| CCN(c1ccc(OCCCCCCC(=O)N[C@H](C(=O)N2C[C@H](O)C[C@H]2C(=O)NCc2ccc(-c3scnc3C)cc2)C(C)(C)C)cc1)S(=O)(=O)C1CC2OC1C(c1ccc(O)cc1)=C2c1ccc(O)cc1 (stereo partly drawn) | > 30 | 6.13 | > 30 | > 30 | 0.12 | > 100 | 0.43 | 1.58 | 1.07 | 6.55 | > 30 | > 100 | – |
| CCN(c1ccc(OCCCCCCCCCC(=O)N[C@H](C(=O)N2C[C@H](O)C[C@H]2C(=O)NCc2ccc(-c3scnc3C)cc2)C(C)(C)C)cc1)S(=O)(=O)C1CC2OC1C(c1ccc(O)cc1)=C2c1ccc(O)cc1 (stereo partly drawn) | > 30 | 2.9 | > 30 | > 30 | 0.08 | > 100 | > 10 | 0.75 | 3.38 | 9.83 | > 30 | > 100 | – |
| CCN(c1ccc(OCCCCC(=O)N[C@H](C(=O)N2C[C@H](O)C[C@H]2C(=O)NCc2ccc(-c3scnc3C)cc2)C(C)(C)C)cc1)S(=O)(=O)C1CC2OC1C(c1ccc(O)cc1)=C2c1ccc(O)cc1 (stereo partly drawn) | 4.58 | 8.34 | 7.27 | 3.03 | 0.13 | 1.03 | 1.11 | 2.15 | 0.73 | 6.05 | 15.2 | > 100 | – |
| O=C(COc1ccc(C2CCC(=O)NC2=O)cc1)NCCCCNC(=O)COc1ccc(N(CC(F)(F)F)S(=O)(=O)C2CC3OC2C(c2ccc(O)cc2)=C3c2ccc(O)cc2)cc1 (stereo not drawn) | 17.7 | 3.44 | 15.2 | 14.6 | 0.18 | 9.45 | 0.69 | 0.89 | 1.27 | 4.37 | 14.5 | > 100 | Active |
| CCN(c1ccc(OCCCCCCCC(=O)N[C@H](C(=O)N2C[C@H](O)C[C@H]2C(=O)NCc2ccc(-c3scnc3C)cc2)C(C)(C)C)cc1)S(=O)(=O)C1CC2OC1C(c1ccc(O)cc1)=C2c1ccc(O)cc1 (stereo partly drawn) | > 30 | 10.4 | > 30 | > 30 | 0.1 | > 100 | > 10 | 2.7 | 0.75 | 7.86 | > 30 | > 100 | – |
| O=C(COc1ccc(C2CCC(=O)NC2=O)cc1)NCCCCCCNC(=O)COc1ccc(N(CC(F)(F)F)S(=O)(=O)C2CC3OC2C(c2ccc(O)cc2)=C3c2ccc(O)cc2)cc1 (stereo not drawn) | > 30 | 6.34 | > 30 | > 30 | 0.11 | > 30 | 6.52 | 1.64 | 1.13 | 7.15 | > 30 | > 100 | Active |
| O=C(COc1ccc(C2CCC(=O)NC2=O)cc1)NCCNC(=O)COc1ccc(N(CC(F)(F)F)S(=O)(=O)C2CC3OC2C(c2ccc(O)cc2)=C3c2ccc(O)cc2)cc1 (stereo not drawn) | 19.7 | 5.08 | 21.4 | 17.3 | 0.16 | 13.7 | 1.14 | 1.31 | 0.97 | 4.91 | 21 | > 100 | Active |
| CC/C(=C(\c1ccc(O)cc1)c1ccc(OCCN(C)C)cc1)c1ccccc1 [AFIMOXIFENE] | 11.6 | – | 9.89 | 1.95 | – | – | – | – | – | – | 22.2 | – | – |
| O=C(COc1cccc2c1C(=O)N(C1CCC(=O)NC1=O)C2=O)NCCCCCCOc1ccc(N(CC(F)(F)F)S(=O)(=O)C2CC3OC2C(c2ccc(O)cc2)=C3c2ccc(O)cc2)cc1 (stereo not drawn) | > 30 | 4.26 | > 30 | 25.4 | 0.1 | > 100 | 11 | 1.1 | 1.85 | 7.86 | > 30 | > 100 | Active |
| CCN(c1ccc(OCCCCC(=O)N[C@H](C(=O)N2C[C@H](O)C[C@H]2C(=O)N[C@@H](C)c2ccc(-c3scnc3C)cc2)C(C)(C)C)cc1)S(=O)(=O)C1CC2OC1C(c1ccc(O)cc1)=C2c1ccc(O)cc1 (stereo partly drawn) | 14.6 | 5.63 | 18.1 | 14.2 | 0.11 | 2.4 | 0.93 | 1.45 | 1.27 | 7.15 | 16.8 | > 100 | – |
